“And” between values parts separate entries of the source, which are not always exact repeats. Equal values may be shown once.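 Cells were grown in 96-well plates and exposed to each compound for 48 hours at five concentrations; endpoints were interpolated linearly between bracketing concentrations, or set to the highest concentration if not reached. Here, GI50 denotes the concentration required for 50% inhibition of growth. TGI denotes the concentration required for complete inhibition of growth.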

The first experiment has as its system OVCAR-4 ovarian. Description: NCI anticancer screen, dose series, 48 h.
As for `COc1cc(/C=N\NC(=O)CN2CCN(c3cc4c(cc3F)c(=O)c(C(=O)N/N=C/c3cc(OC)c(OC)c(OC)c3)cn4C3CC3)CC2)cc(OC)c1OC`, the GI50 was 0.379 µM and the TGI is above 100 µM.

A further experiment relates to SF-539 CNS. Description: NCI anticancer screen, dose series, 48 h.
Turning to `Fc1[nH]nc2ccc([C@@H]3Nc4ccc5[nH]ncc5c4[C@H]4C5CCC(C5)[C@@H]34)cc12` (some centres undefined), the GI50 is 0.854 µM and the TGI came out at 3.94 µM.
On to `C=C(C)C(OC)C(O)CC1(C)CC(O)CC(C)(C2CCC3OC(C4(C)CCC(Br)C(C)(C)O4)CCC3(C)O2)O1` (centres undefined), for which the GI50 was 18.9 µM and the TGI is 36.5 µM.
As to `NC(N)=NS(=O)(=O)c1ccc(Nc2c3ccccc3nc3c(C(=O)NCCO)cccc23)cc1`, the GI50 was 29.5 µM.
Take `COc1cccc(-c2cc(-c3cccc(NS(C)(=O)=O)c3)nc(N)c2C#N)c1O`: the GI50 was 0.154 µM and the TGI is above 100 µM.
`COc1ccc2c(c1)sc1nc(-c3ccccc3)c(-c3cccc4ccccc34)n12`: the GI50 is 0.385 µM.
On to `C[N+](C)(C)CC(=O)N/N=C(/CC(=O)CC(C1=C(O)c2ccccc2OC1)c1ccccc1)C(=O)Nc1cccc(Cl)c1` (centres undefined), for which the TGI was above 100 µM.
`OCCN(CCO)c1ncnc2c1ncn2Cc1ccc(CCl)cc1`: the GI50 was 10.3 µM and the TGI came to 24.2 µM.
Consider `O=C(Nc1ccccc1)c1c(O)[nH]c(=S)[nH]c1=O`, for which the GI50 was 102 µM; the TGI is 87.1 µM and > 250 µM.
Turning to `Cc1ccc(NC(=O)Nc2ccc(-c3cccnc3)cc2N2CCC(CO)CC2)cc1`, the GI50 is 1.68 µM and the TGI turned out to be 4.67 µM.
The corresponding values for `Cc1cc(-c2nc(C(=O)Nc3cc4oc(N5CCOCC5)nc4nc3N3CC[C@@H](O)C3)co2)ccn1` are 24 µM and above 100 µM.
Turning to `COc1ccc(CC2c3cc4c(cc3CCN2C)OCO4)c(C=O)c1OC` (centres undefined), the TGI is above 100 µM.
Take `COc1cc(/C=N\NC(=O)CN2CCN(c3cc4c(cc3F)c(=O)c(C(=O)N/N=C/c3cc(OC)c(OC)c(OC)c3)cn4C3CC3)CC2)cc(OC)c1OC`: the GI50 is 0.212 µM and the TGI came out at 0.522 µM.

The subject of another experiment is SN12C renal. Description: NCI anticancer screen, dose series, 48 h.
Regarding `Fc1[nH]nc2ccc([C@@H]3Nc4ccc5[nH]ncc5c4[C@H]4C5CCC(C5)[C@@H]34)cc12` (some centres undefined), the GI50 was 1.99 µM and the TGI worked out at 18.1 µM.
The corresponding values for `C=C(C)C(OC)C(O)CC1(C)CC(O)CC(C)(C2CCC3OC(C4(C)CCC(Br)C(C)(C)O4)CCC3(C)O2)O1` (centres undefined) are 18.3 µM and 39.4 µM.
On to `NC(N)=NS(=O)(=O)c1ccc(Nc2c3ccccc3nc3c(C(=O)NCCO)cccc23)cc1`, for which the GI50 was 26.7 µM.
With `COc1cccc(-c2cc(-c3cccc(NS(C)(=O)=O)c3)nc(N)c2C#N)c1O`, the GI50 is 0.505 µM and the TGI was above 100 µM.
For `COc1ccc2c(c1)sc1nc(-c3ccccc3)c(-c3cccc4ccccc34)n12`, the GI50 was 1.02 µM and the TGI is above 100 µM.
Consider `C[N+](C)(C)CC(=O)N/N=C(/CC(=O)CC(C1=C(O)c2ccccc2OC1)c1ccccc1)C(=O)Nc1cccc(Cl)c1` (centres undefined), for which the TGI was above 100 µM.
`OCCN(CCO)c1ncnc2c1ncn2Cc1ccc(CCl)cc1`: the GI50 is 21 µM and the TGI worked out at 45.8 µM.
As to `O=C(Nc1ccccc1)c1c(O)[nH]c(=S)[nH]c1=O`, the TGI is 112 µM.
For the molecule `Cc1ccc(NC(=O)Nc2ccc(-c3cccnc3)cc2N2CCC(CO)CC2)cc1`, the GI50 is 4.49 µM and the TGI is above 100 µM.
The corresponding values for `Cc1cc(-c2nc(C(=O)Nc3cc4oc(N5CCOCC5)nc4nc3N3CC[C@@H](O)C3)co2)ccn1` are 26 µM and above 100 µM.
As to `COc1ccc(CC2c3cc4c(cc3CCN2C)OCO4)c(C=O)c1OC` (centres undefined), the TGI was above 100 µM.
As to `COc1cc(/C=N\NC(=O)CN2CCN(c3cc4c(cc3F)c(=O)c(C(=O)N/N=C/c3cc(OC)c(OC)c(OC)c3)cn4C3CC3)CC2)cc(OC)c1OC`, the GI50 was 0.225 µM and the TGI is 0.601 µM.

A further experiment has as its system SW-620 colon. Description: NCI anticancer screen, dose series, 48 h.
Take `Fc1[nH]nc2ccc([C@@H]3Nc4ccc5[nH]ncc5c4[C@H]4C5CCC(C5)[C@@H]34)cc12` (some centres undefined): the GI50 is 0.472 µM and the TGI came out at 17.3 µM.
For the molecule `C=C(C)C(OC)C(O)CC1(C)CC(O)CC(C)(C2CCC3OC(C4(C)CCC(Br)C(C)(C)O4)CCC3(C)O2)O1` (centres undefined), the GI50 is 21 µM and the TGI was 45.4 µM.
Take `NC(N)=NS(=O)(=O)c1ccc(Nc2c3ccccc3nc3c(C(=O)NCCO)cccc23)cc1`: the GI50 is 17.2 µM.
In the case of `COc1cccc(-c2cc(-c3cccc(NS(C)(=O)=O)c3)nc(N)c2C#N)c1O`, the GI50 was 0.0904 µM and the TGI is above 100 µM.
The corresponding values for `COc1ccc2c(c1)sc1nc(-c3ccccc3)c(-c3cccc4ccccc34)n12` are 0.346 µM and above 100 µM.
Regarding `C[N+](C)(C)CC(=O)N/N=C(/CC(=O)CC(C1=C(O)c2ccccc2OC1)c1ccccc1)C(=O)Nc1cccc(Cl)c1` (centres undefined), the TGI was above 100 µM.
In the case of `OCCN(CCO)c1ncnc2c1ncn2Cc1ccc(CCl)cc1`, the GI50 was 10.8 µM and the TGI was found to be 27.3 µM.
Regarding `O=C(Nc1ccccc1)c1c(O)[nH]c(=S)[nH]c1=O`, the GI50 is 74.4 µM; the TGI was 97.7 µM and > 250 µM.
Turning to `Cc1ccc(NC(=O)Nc2ccc(-c3cccnc3)cc2N2CCC(CO)CC2)cc1`, the GI50 was 2.52 µM and the TGI is above 100 µM.
On to `Cc1cc(-c2nc(C(=O)Nc3cc4oc(N5CCOCC5)nc4nc3N3CC[C@@H](O)C3)co2)ccn1`, for which the GI50 was 28.4 µM and the TGI was above 100 µM.
In turn, `COc1ccc(CC2c3cc4c(cc3CCN2C)OCO4)c(C=O)c1OC` (centres undefined) yielded a TGI above 100 µM.
With `COc1cc(/C=N\NC(=O)CN2CCN(c3cc4c(cc3F)c(=O)c(C(=O)N/N=C/c3cc(OC)c(OC)c(OC)c3)cn4C3CC3)CC2)cc(OC)c1OC`, the GI50 is 0.328 µM and the TGI is above 100 µM.

A further experiment concerns T-47D breast. Description: NCI anticancer screen, dose series, 48 h.
For `Fc1[nH]nc2ccc([C@@H]3Nc4ccc5[nH]ncc5c4[C@H]4C5CCC(C5)[C@@H]34)cc12` (some centres undefined), the GI50 is 0.436 µM and the TGI was determined as 12.9 µM.
The corresponding values for `C=C(C)C(OC)C(O)CC1(C)CC(O)CC(C)(C2CCC3OC(C4(C)CCC(Br)C(C)(C)O4)CCC3(C)O2)O1` (centres undefined) are 2.27 µM and 22.2 µM.
Consider `NC(N)=NS(=O)(=O)c1ccc(Nc2c3ccccc3nc3c(C(=O)NCCO)cccc23)cc1`, for which the GI50 was 11 µM.
As to `COc1cccc(-c2cc(-c3cccc(NS(C)(=O)=O)c3)nc(N)c2C#N)c1O`, the GI50 was 0.317 µM and the TGI was 58.6 µM.
The corresponding values for `COc1ccc2c(c1)sc1nc(-c3ccccc3)c(-c3cccc4ccccc34)n12` are 4.38 µM and above 62.2 µM.
The molecule `C[N+](C)(C)CC(=O)N/N=C(/CC(=O)CC(C1=C(O)c2ccccc2OC1)c1ccccc1)C(=O)Nc1cccc(Cl)c1` (centres undefined) displayed a TGI above 100 µM.
In the case of `OCCN(CCO)c1ncnc2c1ncn2Cc1ccc(CCl)cc1`, the GI50 is 19.4 µM and the TGI is 36.5 µM.
In the case of `O=C(Nc1ccccc1)c1c(O)[nH]c(=S)[nH]c1=O`, the TGI is 105 µM.
In the case of `Cc1ccc(NC(=O)Nc2ccc(-c3cccnc3)cc2N2CCC(CO)CC2)cc1`, the GI50 is 3.9 µM and the TGI is above 100 µM.
The corresponding values for `Cc1cc(-c2nc(C(=O)Nc3cc4oc(N5CCOCC5)nc4nc3N3CC[C@@H](O)C3)co2)ccn1` are 22.1 µM and above 100 µM.
With `COc1ccc(CC2c3cc4c(cc3CCN2C)OCO4)c(C=O)c1OC` (centres undefined), the TGI was above 100 µM.
Turning to `COc1cc(/C=N\NC(=O)CN2CCN(c3cc4c(cc3F)c(=O)c(C(=O)N/N=C/c3cc(OC)c(OC)c(OC)c3)cn4C3CC3)CC2)cc(OC)c1OC`, the GI50 is 0.255 µM and the TGI amounted to 0.767 µM.

For another experiment, the system named is UACC-62 melanoma. Put plainly: NCI anticancer screen, dose series, 48 h.
`Fc1[nH]nc2ccc([C@@H]3Nc4ccc5[nH]ncc5c4[C@H]4C5CCC(C5)[C@@H]34)cc12` (some centres undefined): the GI50 is 0.849 µM and the TGI turned out to be 13.2 µM.
Regarding `C=C(C)C(OC)C(O)CC1(C)CC(O)CC(C)(C2CCC3OC(C4(C)CCC(Br)C(C)(C)O4)CCC3(C)O2)O1` (centres undefined), the GI50 is 19 µM and the TGI came to 39.5 µM.
As to `NC(N)=NS(=O)(=O)c1ccc(Nc2c3ccccc3nc3c(C(=O)NCCO)cccc23)cc1`, the GI50 was 18.1 µM.
In the case of `COc1cccc(-c2cc(-c3cccc(NS(C)(=O)=O)c3)nc(N)c2C#N)c1O`, the GI50 is 0.064 µM and the TGI was above 100 µM.
As for `COc1ccc2c(c1)sc1nc(-c3ccccc3)c(-c3cccc4ccccc34)n12`, the GI50 is 0.414 µM and the TGI was above 100 µM.
On to `C[N+](C)(C)CC(=O)N/N=C(/CC(=O)CC(C1=C(O)c2ccccc2OC1)c1ccccc1)C(=O)Nc1cccc(Cl)c1` (centres undefined), for which the TGI is above 100 µM.
As for `OCCN(CCO)c1ncnc2c1ncn2Cc1ccc(CCl)cc1`, the GI50 was 18 µM and the TGI came to 33.5 µM.
For `O=C(Nc1ccccc1)c1c(O)[nH]c(=S)[nH]c1=O`, the GI50 was 33 µM; the TGI is 55.2 µM and 162 µM.
As to `Cc1ccc(NC(=O)Nc2ccc(-c3cccnc3)cc2N2CCC(CO)CC2)cc1`, the GI50 was 2.3 µM and the TGI was found to be 6.18 µM.
The corresponding values for `Cc1cc(-c2nc(C(=O)Nc3cc4oc(N5CCOCC5)nc4nc3N3CC[C@@H](O)C3)co2)ccn1` are 57 µM and above 100 µM.
Molecule `COc1ccc(CC2c3cc4c(cc3CCN2C)OCO4)c(C=O)c1OC` (centres undefined) gave a TGI above 100 µM.
For the molecule `COc1cc(/C=N\NC(=O)CN2CCN(c3cc4c(cc3F)c(=O)c(C(=O)N/N=C/c3cc(OC)c(OC)c(OC)c3)cn4C3CC3)CC2)cc(OC)c1OC`, the GI50 is 0.231 µM and the TGI is 0.583 µM.

The record behind these values is PubChem BioAssay (NCI).
